Experimental findings from patent publication US8148391B2 (Cephalon, Inc., priority 2006, dated 2012) are described below.

pIC50: −log10 of the molar value. Like-named read-outs stand apart in the source and are kept apart here. Bounds are passed on as bounds.

The target of assay [1] is T1, c-Met (cytoplasmic domain) (Homo sapiens, UniProt P08581).
T1 construct: 10 ng/mL c-Met (cytoplasmic domain, Invitrogen Corporation #PV3143); purchased Invitrogen Corporation PV3143
Kind of assay: c-Met Kinase Assay (same methods as for ALK, with modifications). The assay is classed as biochemical. The following applies: 1 μM ATP (Km level). The method, boiled down:
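Plates were coated with phospholipase C-γ substrate (10 μg/mL) in TBS, and the reaction was started with 10 ng/mL c-Met cytoplasmic domain and run 15 min at 37 °C. Phosphoproduct was detected with Eu-N1-labelled PT66 antibody. IC50 came from a variable-slope sigmoidal fit of percent inhibition vs log concentration.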

The target of assay [2] is T2, baculovirus-expressed ALK (Homo sapiens, UniProt Q9UM73).
T2 construct: host or cells: baculovirus expression system
Kind of assay: ALK Kinase Assay (ELISA-type, time-resolved fluorescence). It is filed as biochemical. The following applies: 1 μM ATP (Km level). The method, boiled down:
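Plates coated with phospholipase C-γ substrate (10 μg/mL in TBS); reaction started with 30 ng/ml ALK and run 15 min at 37° C. Phosphorylated substrate detected with Eu-N1-labeled PT66 antibody. IC50 from sigmoidal variable-slope fit of percent inhibition vs log concentration.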
For orientation: In an ELISA, binding on a coated surface is turned into a signal by an enzyme label.

The mark [3] stands for this setting: read-out: cMet Activity (c-Met Kinase Inhibition, IC50).
Where [4] appears, read: read-out: ALK Activity (ALK Kinase Inhibition, IC50).
Where [5] appears, read: 10 ng/mL c-Met, read-out: cMet Activity (c-Met kinase inhibition, IC50 class).
[6] abbreviates: 30 ng/ml ALK, 37° C., 15 minutes, read-out: ALK Activity (ALK kinase inhibition, IC50 class).

T1 sequence (P08581 956-1390 limits assumed): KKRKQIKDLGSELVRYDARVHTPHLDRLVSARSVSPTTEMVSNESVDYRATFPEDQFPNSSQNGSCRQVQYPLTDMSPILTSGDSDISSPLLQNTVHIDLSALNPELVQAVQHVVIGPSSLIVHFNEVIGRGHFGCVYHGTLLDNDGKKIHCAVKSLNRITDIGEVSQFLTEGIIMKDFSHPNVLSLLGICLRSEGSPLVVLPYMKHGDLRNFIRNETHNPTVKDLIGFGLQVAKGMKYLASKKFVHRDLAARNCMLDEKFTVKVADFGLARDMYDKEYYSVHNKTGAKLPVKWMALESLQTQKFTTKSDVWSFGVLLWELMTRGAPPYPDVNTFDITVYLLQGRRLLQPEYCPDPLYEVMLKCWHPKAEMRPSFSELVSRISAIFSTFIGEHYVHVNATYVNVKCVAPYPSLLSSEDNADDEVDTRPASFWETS
T2 sequence (Q9UM73 19-1620): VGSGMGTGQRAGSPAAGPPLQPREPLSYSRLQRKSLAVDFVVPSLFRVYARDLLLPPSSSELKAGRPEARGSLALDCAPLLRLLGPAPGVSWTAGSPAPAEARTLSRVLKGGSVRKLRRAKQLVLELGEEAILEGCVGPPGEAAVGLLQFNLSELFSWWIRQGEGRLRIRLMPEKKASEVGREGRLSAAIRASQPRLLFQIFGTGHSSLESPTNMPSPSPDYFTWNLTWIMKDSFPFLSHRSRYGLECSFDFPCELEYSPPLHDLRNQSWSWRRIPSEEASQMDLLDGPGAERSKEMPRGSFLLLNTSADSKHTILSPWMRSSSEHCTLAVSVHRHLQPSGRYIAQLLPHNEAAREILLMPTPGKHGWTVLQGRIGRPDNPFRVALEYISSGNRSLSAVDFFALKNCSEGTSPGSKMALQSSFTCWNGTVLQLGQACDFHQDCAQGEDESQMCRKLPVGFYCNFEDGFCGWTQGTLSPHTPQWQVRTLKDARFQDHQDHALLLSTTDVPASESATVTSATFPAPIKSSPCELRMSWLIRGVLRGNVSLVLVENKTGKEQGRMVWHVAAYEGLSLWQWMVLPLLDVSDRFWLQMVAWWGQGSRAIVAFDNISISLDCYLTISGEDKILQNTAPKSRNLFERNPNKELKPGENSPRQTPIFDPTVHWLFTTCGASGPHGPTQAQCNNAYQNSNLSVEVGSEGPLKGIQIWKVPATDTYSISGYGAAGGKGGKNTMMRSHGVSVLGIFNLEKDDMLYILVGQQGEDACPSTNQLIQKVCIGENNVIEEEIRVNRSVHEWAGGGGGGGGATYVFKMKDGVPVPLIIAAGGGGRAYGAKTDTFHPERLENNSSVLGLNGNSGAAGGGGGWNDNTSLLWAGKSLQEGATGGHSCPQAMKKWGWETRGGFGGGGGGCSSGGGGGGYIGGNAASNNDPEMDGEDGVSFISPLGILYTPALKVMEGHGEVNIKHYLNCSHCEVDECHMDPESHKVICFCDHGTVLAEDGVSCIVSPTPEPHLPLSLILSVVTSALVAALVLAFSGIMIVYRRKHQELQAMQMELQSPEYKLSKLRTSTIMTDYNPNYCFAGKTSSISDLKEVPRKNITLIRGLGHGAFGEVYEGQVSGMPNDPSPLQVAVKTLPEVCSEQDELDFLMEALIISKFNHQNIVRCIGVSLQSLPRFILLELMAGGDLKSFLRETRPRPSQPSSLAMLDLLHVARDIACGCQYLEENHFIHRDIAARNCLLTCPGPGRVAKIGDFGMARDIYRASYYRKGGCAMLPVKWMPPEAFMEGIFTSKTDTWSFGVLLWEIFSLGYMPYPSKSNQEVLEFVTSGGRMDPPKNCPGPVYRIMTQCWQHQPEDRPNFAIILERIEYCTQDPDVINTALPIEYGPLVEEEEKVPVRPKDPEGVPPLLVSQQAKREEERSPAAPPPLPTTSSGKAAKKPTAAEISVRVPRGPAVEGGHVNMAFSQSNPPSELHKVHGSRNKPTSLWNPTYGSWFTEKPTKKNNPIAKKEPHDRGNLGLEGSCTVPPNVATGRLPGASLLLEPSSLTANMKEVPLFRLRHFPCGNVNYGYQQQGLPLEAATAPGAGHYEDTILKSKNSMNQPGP

In the case of `COc1cc2c(cc1Nc1ncc(Cl)c(Nc3ccccc3-c3nccn3C)n1)CCN(CC(=O)N(C)C)CC2` [Example 999, 2-(7-{5-Chloro-4-[2-(1-methyl-1H-imidazol-2-yl)-phenylamino]-pyrimidin-2-ylamino}-8-methoxy-1,2,4,5-tetrahydro-benzo[d]azepin-3-yl)-N,N-dimethyl-acetamide], the pIC50 – broadly, the negative decadic logarithm of the IC50, by convention in mol/L – was < 5.00 in assay [1] (setting [3]) and > 7.00 in assay [2] (setting [4]).

Consider `COc1cc2c(cc1Nc1ncc(Cl)c(Nc3ccccc3-c3ncccc3C)n1)CCN(CC(=O)N(C)C)CC2` [Example 1000, 2-(7-{5-Chloro-4-[2-(3-methyl-pyridin-2-yl)-phenylamino]-pyrimidin-2-ylamino}-8-methoxy-1,2,4,5-tetrahydro-benzo[d]azepin-3-yl)-N,N-dimethyl-acetamide], for which the negative-log IC50 (pIC50) in assay [1] (setting [3]) was < 5.00; in assay [2] (setting [4]) it was > 7.00.

Take `Cc1ccnc(-c2ccccc2Nc2nc(Nc3ccc4c(c3)C(C)(C)CCC(=O)N4)ncc2Cl)c1` [Example 1001, 7-{5-Chloro-4-[2-(4-methyl-pyridin-2-yl)-phenylamino]-pyrimidin-2-ylamino}-5,5-dimethyl-1,3,4,5-tetrahydro-benzo[b]azepin-2-one]: the negative-log IC50 (pIC50) in assay [1] (setting [3]) is < 5.00; in assay [2] (setting [4]), 6.00 to 7.00.

`Cc1ccnc(-c2ccccc2Nc2nc(Nc3ccc4c(c3)CCCC(=O)N4C)ncc2Cl)c1` [Example 1002, 7-{5-Chloro-4-[2-(4-methyl-pyridin-2-yl)-phenylamino]-pyrimidin-2-ylamino}-1-methyl-1,3,4,5-tetrahydro-benzo[b]azepin-2-one]: the negative-log IC50 (pIC50) in assay [1] (setting [3]) and in assay [2] (setting [4]) was 6.00 to 7.00 in each case.

On to `Cc1ccc(-c2ccccc2Nc2nc(Nc3ccc4c(c3)C(C)(C)CCC(=O)N4)ncc2Cl)nc1` [Example 1003, 7-{5-Chloro-4-[2-(5-methyl-pyridin-2-yl)-phenylamino]-pyrimidin-2-ylamino}-5,5-dimethyl-1,3,4,5-tetrahydro-benzo[b]azepin-2-one], for which the results for the pIC50 in assay [1] (setting [3]) and in assay [2] (setting [4]) were < 5.00 and 5.00 to 6.00, respectively.

In the case of `Cc1ccc(-c2ccccc2Nc2nc(Nc3ccc4c(c3)CCCC(=O)N4C)ncc2Cl)nc1` [Example 1004, 7-{5-Chloro-4-[2-(5-methyl-pyridin-2-yl)-phenylamino]-pyrimidin-2-ylamino}-1-methyl-1,3,4,5-tetrahydro-benzo[b]azepin-2-one], the negative-log IC50 (pIC50) in assay [1] (setting [3]) and in assay [2] (setting [4]) was 5.00 to 6.00 in each case.

For the compound `Cn1cnc2c(Nc3nc(Nc4ccc5c(c4)C(C)(C)CCC(=O)N5)ncc3Cl)cccc21` [Example 1005, 7-[5-Chloro-4-(1-methyl-1H-benzoimidazol-4-ylamino)-pyrimidin-2-ylamino]-5,5-dimethyl-1,3,4,5-tetrahydro-benzo[b]azepin-2-one], the values for the negative logarithm of the IC50 (pIC50) in assay [1] (setting [3]) and in assay [2] (setting [4]) were 6.00 to 7.00 and > 7.00, respectively.

For the compound `COCCN1CCc2ccc(Nc3ncc(Cl)c(Nc4cccc5c4ncn5C)n3)cc2CC1` [Example 1006, 5-Chloro-N*2*-[3-(2-methoxy-ethyl)-2,3,4,5-tetrahydro-1H-benzo[d]azepin-7-yl]-N*4*-(1-methyl-1H-benzoimidazol-4-yl)-pyrimidine-2,4-diamine], the pIC50 in assay [1] (setting [3]) is 5.00 to 6.00; in assay [2] (setting [4]), 6.00 to 7.00.

Take `CN1C(=O)CCCc2cc(Nc3ncc(Cl)c(Nc4cccc5c4ncn5C)n3)ccc21` [Example 1007, 7-[5-Chloro-4-(1-methyl-1H-benzoimidazol-4-ylamino)-pyrimidin-2-ylamino]-1-methyl-1,3,4,5-tetrahydro-benzo[b]azepin-2-one]: the negative-log IC50 (pIC50) in assay [1] (setting [3]) and in assay [2] (setting [4]) was 6.00 to 7.00 each time.

With `Cc1cccc(-c2ccccc2Nc2nc(Nc3ccc4c(c3)C(C)(C)CCC(=O)N4)ncc2Cl)n1` [Example 1008, 7-{5-Chloro-4-[2-(6-methyl-pyridin-2-yl)-phenylamino]-pyrimidin-2-ylamino}-5,5-dimethyl-1,3,4,5-tetrahydro-benzo[b]azepin-2-one], the negative logarithm of the IC50 (pIC50) was 5.00 to 6.00 in assay [1] (setting [3]) and > 7.00 in assay [2] (setting [4]).

Turning to `COCCN1CCc2ccc(Nc3ncc(Cl)c(Nc4ccccc4-c4cccc(C)n4)n3)cc2CC1` [Example 1009, 5-Chloro-N*2*-[3-(2-methoxy-ethyl)-2,3,4,5-tetrahydro-1H-benzo[d]azepin-7-yl]-N*4*-[2-(6-methyl-pyridin-2-yl)-phenyl]-pyrimidine-2,4-diamine], the values for the pIC50 in assay [1] (setting [3]) and in assay [2] (setting [4]) were 6.00 to 7.00 and > 7.00, respectively.

As to `CC1(C)CCC(=O)Nc2ccc(Nc3ncc(Cl)c(Nc4ccccc4-c4nc(C(F)(F)F)c[nH]4)n3)cc21` [Example 1010, 7-{5-Chloro-4-[2-(4-trifluoromethyl-1H-imidazol-2-yl)-phenylamino]-pyrimidin-2-ylamino}-5,5-dimethyl-1,3,4,5-tetrahydro-benzo[b]azepin-2-one], the pIC50 in assay [1] (setting [3]) was 5.00 to 6.00; in assay [2] (setting [4]), 6.00 to 7.00.

Consider `COCCN1CCc2ccc(Nc3ncc(Cl)c(Nc4ccccc4-c4nc(C(F)(F)F)c[nH]4)n3)cc2CC1` [Example 1011, 5-Chloro-N*2*-[3-(2-methoxy-ethyl)-2,3,4,5-tetrahydro-1H-benzo[d]azepin-7-yl]-N*4*-[2-(4-trifluoromethyl-1H-imidazol-2-yl)-phenyl]-pyrimidine-2,4-diamine], for which the pIC50 was 6.00 to 7.00 in assay [1] (setting [3]) and > 7.00 in assay [2] (setting [4]).

For the compound `O=C1CCCc2cc(Nc3ncc(Cl)c(Nc4ccccc4-c4nc(C(F)(F)F)c[nH]4)n3)ccc2N1` [Example 1012, 7-{5-Chloro-4-[2-(4-trifluoromethyl-1H-imidazol-2-yl)-phenylamino]-pyrimidin-2-ylamino}-1,3,4,5-tetrahydro-benzo[b]azepin-2-one], the pIC50 in assay [1] (setting [3]) and in assay [2] (setting [4]) was 6.00 to 7.00 in each case.

On to `CN1C(=O)CCCc2cc(Nc3ncc(Cl)c(Nc4ccccc4-c4nc(C(F)(F)F)c[nH]4)n3)ccc21` [Example 1013, 7-{5-Chloro-4-[2-(4-trifluoromethyl-1H-imidazol-2-yl)-phenylamino]-pyrimidin-2-ylamino}-1-methyl-1,3,4,5-tetrahydro-benzo[b]azepin-2-one], for which the pIC50 is 5.00 to 6.00 in assay [1] (setting [3]) and 6.00 to 7.00 in assay [2] (setting [4]).

In the case of `CC1(C)CCC(=O)Nc2ccc(Nc3ncc(Cl)c(Nc4ccc5[nH]c(C(F)(F)F)nc5c4)n3)cc21` [Example 1014, 7-[5-Chloro-4-(2-trifluoromethyl-1H-benzoimidazol-5-ylamino)-pyrimidin-2-ylamino]-5,5-dimethyl-1,3,4,5-tetrahydro-benzo[b]azepin-2-one], the pIC50 is < 5.00 in assay [1] (setting [5]) and > 7.00 in assay [2] (setting [6]).

`COCCN1CCc2ccc(Nc3ncc(Cl)c(Nc4ccc5[nH]c(C(F)(F)F)nc5c4)n3)cc2CC1` [Example 1015, 5-Chloro-N*2*-[3-(2-methoxy-ethyl)-2,3,4,5-tetrahydro-1H-benzo[d]azepin-7-yl]-N*4*-(2-trifluoromethyl-1H-benzoimidazol-5-yl)-pyrimidine-2,4-diamine]: the pIC50 in assay [1] (setting [5]) was 5.00 to 6.00; in assay [2] (setting [6]), 6.00 to 7.00.

Take `CN1C(=O)CCCc2cc(Nc3ncc(Cl)c(Nc4ccc5[nH]c(C(F)(F)F)nc5c4)n3)ccc21` [Example 1016, 7-[5-Chloro-4-(2-trifluoromethyl-1H-benzoimidazol-5-ylamino)-pyrimidin-2-ylamino]-1-methyl-1,3,4,5-tetrahydro-benzo[b]azepin-2-one]: the negative logarithm of the IC50 (pIC50) in assay [1] (setting [5]) was 5.00 to 6.00; in assay [2] (setting [6]) it was 6.00 to 7.00.

In the case of `NC(=O)[C@@H]1[C@H](Nc2nc(Nc3ccc4c(c3)CCC(O)CC4)ncc2Cl)[C@H]2C=C[C@@H]1C2` (stereo partly drawn) [Example 1017, (1S,2S,3R,4R)-3-[5-Chloro-2-(7-hydroxy-6,7,8,9-tetrahydro-5H-benzocyclohepten-2-ylamino)-pyrimidin-4-ylamino]-bicyclo[2.2.1]hept-5-ene-2-carboxylic acid amide], the negative-log IC50 (pIC50) in assay [1] (setting [5]) was 6.00 to 7.00; in assay [2] (setting [6]), > 7.00.

In the case of `COc1cccnc1-c1ccccc1Nc1nc(Nc2ccc3c(c2)CCC(N2CCOCC2)CC3)ncc1Cl` (stereo not shown) [Example 1018, 5-Chloro-N*4*-[2-(3-methoxy-pyridin-2-yl)-phenyl]-N*2*-(7-morpholin-4-yl-6,7,8,9-tetrahydro-5H-benzocyclohepten-2-yl)-pyrimidine-2,4-diamine], the pIC50 in assay [1] (setting [5]) is 5.00 to 6.00; in assay [2] (setting [6]) it was > 7.00.

Consider `COc1cccnc1-c1ccccc1Nc1nc(Nc2ccc3c(c2)CCC(O)CC3)ncc1Cl` (stereo not shown) [Example 1019, 2-{5-Chloro-4-[2-(3-methoxy-pyridin-2-yl)-phenylamino]-pyrimidin-2-ylamino}-6,7,8,9-tetrahydro-5H-benzocyclohepten-7-ol], for which the pIC50 in assay [1] (setting [5]) and in assay [2] (setting [6]) was 6.00 to 7.00 in each case.

On to `Cc1cccnc1-c1ccccc1Nc1nc(Nc2ccc3c(c2)CCC(N2CCOCC2)CC3)ncc1Cl` (stereo not shown) [Example 1020, 5-Chloro-N*4*-[2-(3-methyl-pyridin-2-yl)-phenyl]-N*2*-(7-morpholin-4-yl-6,7,8,9-tetrahydro-5H-benzocyclohepten-2-yl)-pyrimidine-2,4-diamine], for which the pIC50 was 5.00 to 6.00 in assay [1] (setting [5]) and > 7.00 in assay [2] (setting [6]).

`Cc1cccnc1-c1ccccc1Nc1nc(Nc2ccc3c(c2)CCC(O)CC3)ncc1Cl` (stereo not shown) [Example 1021, 2-{5-Chloro-4-[2-(3-methyl-pyridin-2-yl)-phenylamino]-pyrimidin-2-ylamino}-6,7,8,9-tetrahydro-5H-benzocyclohepten-7-ol]: the pIC50 was 5.00 to 6.00 in assay [1] (setting [5]) and 6.00 to 7.00 in assay [2] (setting [6]).
